Measured values as given in ChEMBL document CHEMBL1201862, “PubChem BioAssay data set” (2004).
Structures can show the parent of a compound that is named as a salt. Blank lines part the entries; values can stand above or below the compound they belong to. Active and inactive are the calls of the source.

How the values were obtained:
Mu-type opioid receptor = Mu-type opioid receptor (Homo sapiens, UniProt P35372); format: functional, cell-based;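 also: U2OS cells with beta-arrestin recruitment to OPRM1 by beta-gal complementation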
[1] = target: 5-hydroxytryptamine receptor 2A (Mus musculus, UniProt P35363); format: functional, cell-based;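 also: CHO-K1 cells with tagged receptor and beta-arrestin; agonist potency measured as compound-induced activation of the receptor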
HEK293 [2] = assay: inhibition of NOD1-driven NF-kB reporter – cell-based, luminescence, uHTS, primary screen (AID 1578); format: functional; settings: Homo sapiens
HEK293 [3] = assay: cells; format: functional, cell-based; settings: Homo sapiens
HEK293 [4] = assay: cells; format: functional, cell-based; settings: Homo sapiens; remark: listed apart in the source
HEK293 [5] = assay: NOD2 signaling inhibitors in MDP-stimulated cells, cell-based, uHTS, luminescence (AID 2001); format: functional; settings: Homo sapiens
Tumor necrosis factor = Tumor necrosis factor (Homo sapiens, UniProt P01375); assay: analog potency on TNFa NF-kB signaling – cell-based, revised, SAR follow-up (AID 2337); format: functional
[6] = target: Nucleotide-binding oligomerization domain-containing protein 1 (Homo sapiens, UniProt Q9Y239); assay: blockers of NOD1 pathway activity – revised, SAR follow-up (AID 2333); format: functional
Jurkat = assay: blockers of NF-kB activation in T cells – Jurkat, luciferase reporter, luminescence, B- and T-cell, dose response (AID 489004); format: functional, cell-based; settings: Homo sapiens;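 also: NF-kB luciferase reporter Jurkat cells stimulated with PMA plus ionomycin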
[7] = target: Eukaryotic translation initiation factor 4E (Mus musculus, UniProt P63073); assay: blockers of eIF4G binding by eIF4E – biochemical, TR-FRET, dose response (AID 855); format: functional;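 also: potency for disrupting eIF4E binding to eIF4GI seen as loss of FRET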
[8] = HEK-293T viability loss, compound-treated – cell-based, uHTS hits, cytotoxicity control for B/T-cell NF-kB inhibitor project, dose response (AID 489019); format: functional;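 also: IC50 reflects cytotoxicity as loss of cell viability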
Galanin receptor type 3 = Galanin receptor type 3 (Homo sapiens, UniProt O60755); assay: Fluorescence-based cell-based primary high throughput dose response assay to identify antagonists of the Galanin Receptor 3 (GalR3).; format: functional
cells = format: functional, cell-based; settings: HEK-CNG
[9] = off-target signal loss in HeLa-CEM21 co-culture – HeLa F-luc CTL cells, cherry-picked, counter-screen for HIV-1 Env fusion inhibitor project, dose response (AID 652040); format: functional, cell-based;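 also: potency for signal decrease marking cytotoxic or nonspecific inhibition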
[10] = HIV-1 AD8 envelope cell-cell fusion blockers – cherry-pick, dose response (AID 652062); format: functional, cell-based;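 also: luciferase signal from cell-cell fusion driven by HIV-1 clade B AD8 Env; potency is for inhibitors of fusion seen as a drop in luminescence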
HEK293 [11] = assay: cells; settings: Homo sapiens
[12] = target: T1, Carboxy-terminal domain RNA polymerase II polypeptide A small phosphatase 1 (Homo sapiens, UniProt Q9GZU7); assay: CTDSP1 inhibitors, concentration-response, biochemical, absorbance readout, ultra-high-throughput screen actives (AID 540297); format: functional
T1 sequence (Q9GZU7 whole entry): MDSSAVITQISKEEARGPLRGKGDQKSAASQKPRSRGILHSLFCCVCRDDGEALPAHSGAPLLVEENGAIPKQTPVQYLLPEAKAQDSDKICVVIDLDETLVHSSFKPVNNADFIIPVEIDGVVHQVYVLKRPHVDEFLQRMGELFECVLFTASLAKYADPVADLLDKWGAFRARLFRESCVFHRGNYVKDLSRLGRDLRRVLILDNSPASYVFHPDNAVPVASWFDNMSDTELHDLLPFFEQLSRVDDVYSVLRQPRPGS

[13] = target: 26S proteasome non-ATPase regulatory subunit 14 (Homo sapiens, UniProt O00487); assay: inhibition of proteasome subunit RPN11 – biochemical, fluorescence polarization, uHTS hits, confirmation (AID 602368); format: functional
[14] = target: 72 kDa type IV collagenase (Homo sapiens, UniProt P08253); assay: Dose Response validation of uHTS RPN11 inhibitor hits using a MMP-2 Fluorescence assay.; format: functional
Prothrombin = Prothrombin (Bos taurus, UniProt P00735); assay: thrombin protease inhibitors – biochemical, fluorescence polarization, uHTS hits, dose response (AID 602369); format: functional
[15] = target: T2, Low molecular weight phosphotyrosine protein phosphatase (Homo sapiens, UniProt P24666); format: functional; settings: read-out: IC50_Mean
T2 sequence (P24666 whole entry): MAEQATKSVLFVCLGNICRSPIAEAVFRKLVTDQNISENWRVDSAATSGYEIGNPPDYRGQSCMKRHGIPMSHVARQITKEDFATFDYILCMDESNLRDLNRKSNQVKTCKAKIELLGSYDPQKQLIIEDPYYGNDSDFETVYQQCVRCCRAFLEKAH

[16] = target: T2, Low molecular weight phosphotyrosine protein phosphatase; format: functional; settings: read-out: IC50_Mean; remark: listed apart in the source
[17] = target: T3, Tyrosine-protein phosphatase non-receptor type 22 (Homo sapiens, UniProt Q9Y2R2); assay: PTPN22 enzyme inhibitors – biochemical, fluorescence, LYP catalytic domain, selectivity assay for LMPTP inhibitor project, dose response (AID 652006); format: functional; settings: read-out: IC50_Mean
T3 sequence (Q9Y2R2 whole entry): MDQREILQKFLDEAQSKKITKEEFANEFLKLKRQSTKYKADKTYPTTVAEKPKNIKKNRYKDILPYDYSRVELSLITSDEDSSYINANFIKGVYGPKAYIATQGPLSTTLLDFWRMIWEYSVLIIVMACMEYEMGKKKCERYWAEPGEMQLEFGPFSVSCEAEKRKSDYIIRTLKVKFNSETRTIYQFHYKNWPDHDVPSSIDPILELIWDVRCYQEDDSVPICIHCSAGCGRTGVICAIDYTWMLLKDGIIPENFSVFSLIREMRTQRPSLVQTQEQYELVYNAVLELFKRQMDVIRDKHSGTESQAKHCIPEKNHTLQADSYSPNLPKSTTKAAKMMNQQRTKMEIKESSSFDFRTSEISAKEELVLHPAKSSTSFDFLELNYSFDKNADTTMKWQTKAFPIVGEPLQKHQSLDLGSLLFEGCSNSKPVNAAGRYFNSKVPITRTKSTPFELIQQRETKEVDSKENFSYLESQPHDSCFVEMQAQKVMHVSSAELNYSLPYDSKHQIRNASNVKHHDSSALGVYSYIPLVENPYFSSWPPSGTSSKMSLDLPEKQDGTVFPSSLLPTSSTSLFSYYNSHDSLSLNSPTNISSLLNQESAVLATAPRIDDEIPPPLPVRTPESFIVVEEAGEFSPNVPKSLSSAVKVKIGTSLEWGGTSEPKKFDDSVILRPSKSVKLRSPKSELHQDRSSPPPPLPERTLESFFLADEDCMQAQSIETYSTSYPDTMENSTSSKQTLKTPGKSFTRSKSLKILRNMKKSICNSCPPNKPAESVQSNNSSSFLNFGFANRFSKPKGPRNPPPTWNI

[18] = Luminescence Cell-Based Dose Retest to Confirm Inhibitors of Cancer Stem Cells. [Related pubchem assays (depositor defined):AID2717, AID2721]; format: functional; settings: Homo sapiens
[19] = HEK-293T viability loss after treatment – luminescence, T-cell screen hits, cytotoxicity control for TCR NF-kB inhibitor project, dose response (AID 489026); format: functional, cell-based;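 also: cells exposed to compound about 14 hours before the viability readout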
[20] = target: FAD-linked sulfhydryl oxidase ALR (Homo sapiens, UniProt P55789); assay: ALR-catalysed DTT oxidation blockers – biochemical, H2O2 detection, luminescence, cherry-pick, dose response (AID 493248)
[21] = reduction of Shn3 3'UTR-driven luciferase in osteoblasts – cell-based, Clone20 osteoblasts, firefly luciferase, cherry-picked, dose response (AID 624132); format: functional;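 also: firefly luciferase luminescence from reporter carrying the Shn3 3'UTR in osteoblasts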
[22] = loss of viability in HepG2 cells – cell-based, CellTiter-Glo, cherry-picked, cytotoxicity control for Shn3 inhibitor project, dose response (AID 624134); format: functional
[23] = non-specific 3'UTR reporter inhibition in Clone20-Shn3RL – cell-based, Renilla luciferase, cherry-picked, counter-screen for Shn3 inhibitor project, dose response (AID 624133); format: functional
[24] = cytotoxicity toward MDA-MB-231 breast cancer cells – cell-based, CellTiter-Glo luminescence, cherry-pick, cytotoxicity control for RAD54 inhibitor project, dose response (AID 651692); format: functional
[25] = acridine orange displacement from DNA – biochemical, fluorescence polarization, cherry-pick, artefact control for RAD54 inhibitor project, dose response (AID 651673); format: functional
[26] = target: T4, DNA repair and recombination protein RAD54-like (Homo sapiens, UniProt Q92698); assay: RAD54 Holliday junction migration blockers – biochemical, fluorescence, cherry-picked samples, dose series, confirmation (AID 651657); format: functional
T4 sequence (Q92698 whole entry): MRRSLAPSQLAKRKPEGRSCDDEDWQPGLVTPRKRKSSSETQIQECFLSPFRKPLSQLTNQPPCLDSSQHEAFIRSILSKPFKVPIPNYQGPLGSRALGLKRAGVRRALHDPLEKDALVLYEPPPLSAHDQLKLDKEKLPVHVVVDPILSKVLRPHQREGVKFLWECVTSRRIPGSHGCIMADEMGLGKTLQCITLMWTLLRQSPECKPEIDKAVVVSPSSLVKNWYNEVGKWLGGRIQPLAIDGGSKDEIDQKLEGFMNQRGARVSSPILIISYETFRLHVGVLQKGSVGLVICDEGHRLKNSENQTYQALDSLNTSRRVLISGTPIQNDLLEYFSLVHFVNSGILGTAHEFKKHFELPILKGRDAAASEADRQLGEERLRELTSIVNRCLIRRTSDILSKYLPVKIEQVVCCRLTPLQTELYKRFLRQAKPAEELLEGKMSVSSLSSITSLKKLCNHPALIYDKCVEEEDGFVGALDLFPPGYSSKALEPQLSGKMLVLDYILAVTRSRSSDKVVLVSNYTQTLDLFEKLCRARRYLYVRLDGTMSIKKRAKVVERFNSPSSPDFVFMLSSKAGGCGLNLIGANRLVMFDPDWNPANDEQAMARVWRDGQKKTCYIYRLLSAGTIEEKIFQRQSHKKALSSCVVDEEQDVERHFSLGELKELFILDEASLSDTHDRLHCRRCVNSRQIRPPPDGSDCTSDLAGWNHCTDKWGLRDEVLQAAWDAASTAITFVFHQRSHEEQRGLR

[27] = target: T5, DNA repair protein RAD52 homolog (Homo sapiens, UniProt P43351); format: functional, biochemical
T5 sequence (P43351 whole entry): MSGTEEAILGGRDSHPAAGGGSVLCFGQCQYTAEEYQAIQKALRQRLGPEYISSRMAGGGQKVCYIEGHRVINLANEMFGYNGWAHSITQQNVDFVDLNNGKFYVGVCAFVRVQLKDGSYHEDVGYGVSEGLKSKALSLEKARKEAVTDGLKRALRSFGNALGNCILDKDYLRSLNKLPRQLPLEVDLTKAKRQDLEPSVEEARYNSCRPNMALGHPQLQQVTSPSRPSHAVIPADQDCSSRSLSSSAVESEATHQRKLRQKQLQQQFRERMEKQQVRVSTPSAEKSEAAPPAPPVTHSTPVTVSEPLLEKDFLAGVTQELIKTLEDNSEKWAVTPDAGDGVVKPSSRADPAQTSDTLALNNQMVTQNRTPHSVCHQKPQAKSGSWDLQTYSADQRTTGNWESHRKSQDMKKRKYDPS

Chain of Mu-type opioid receptor (P35372 whole entry): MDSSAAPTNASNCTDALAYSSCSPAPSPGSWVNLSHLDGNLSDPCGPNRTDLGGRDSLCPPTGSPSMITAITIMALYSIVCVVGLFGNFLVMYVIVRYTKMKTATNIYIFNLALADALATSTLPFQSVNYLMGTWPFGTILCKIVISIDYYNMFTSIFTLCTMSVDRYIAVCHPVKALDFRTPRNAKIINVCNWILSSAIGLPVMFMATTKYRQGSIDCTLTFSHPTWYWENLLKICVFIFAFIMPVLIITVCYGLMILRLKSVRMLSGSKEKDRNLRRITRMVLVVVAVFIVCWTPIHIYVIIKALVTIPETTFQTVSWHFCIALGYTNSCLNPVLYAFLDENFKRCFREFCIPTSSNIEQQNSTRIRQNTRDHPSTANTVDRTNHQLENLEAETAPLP
Chain of Nucleotide-binding oligomerization domain-containing protein 1 (Q9Y239 whole entry, the tested form may be a part): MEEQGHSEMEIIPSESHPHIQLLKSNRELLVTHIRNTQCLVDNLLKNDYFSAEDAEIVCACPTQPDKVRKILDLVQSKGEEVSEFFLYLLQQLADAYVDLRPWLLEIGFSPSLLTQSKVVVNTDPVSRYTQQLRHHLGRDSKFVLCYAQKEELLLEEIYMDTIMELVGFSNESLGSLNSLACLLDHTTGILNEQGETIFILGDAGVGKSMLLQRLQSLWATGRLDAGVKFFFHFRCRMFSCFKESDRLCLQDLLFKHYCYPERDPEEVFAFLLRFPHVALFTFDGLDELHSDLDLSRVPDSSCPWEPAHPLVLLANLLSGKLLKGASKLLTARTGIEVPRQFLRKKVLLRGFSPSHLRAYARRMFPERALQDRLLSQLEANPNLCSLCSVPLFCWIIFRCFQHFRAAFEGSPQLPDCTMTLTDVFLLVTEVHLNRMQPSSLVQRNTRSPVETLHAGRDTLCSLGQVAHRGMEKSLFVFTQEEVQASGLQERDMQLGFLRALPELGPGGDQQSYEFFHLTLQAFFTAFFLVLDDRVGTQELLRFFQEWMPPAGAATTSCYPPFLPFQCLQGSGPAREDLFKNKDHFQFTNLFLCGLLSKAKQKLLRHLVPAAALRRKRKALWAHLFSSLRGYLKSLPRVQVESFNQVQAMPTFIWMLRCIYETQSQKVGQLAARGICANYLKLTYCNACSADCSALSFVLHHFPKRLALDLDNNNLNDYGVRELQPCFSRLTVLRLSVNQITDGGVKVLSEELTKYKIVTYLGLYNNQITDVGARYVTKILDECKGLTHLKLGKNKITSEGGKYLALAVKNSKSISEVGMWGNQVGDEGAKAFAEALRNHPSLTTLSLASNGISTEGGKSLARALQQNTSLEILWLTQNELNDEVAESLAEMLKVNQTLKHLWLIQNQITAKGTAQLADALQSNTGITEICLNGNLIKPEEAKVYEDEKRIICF
Chain of FAD-linked sulfhydryl oxidase ALR (P55789 whole entry): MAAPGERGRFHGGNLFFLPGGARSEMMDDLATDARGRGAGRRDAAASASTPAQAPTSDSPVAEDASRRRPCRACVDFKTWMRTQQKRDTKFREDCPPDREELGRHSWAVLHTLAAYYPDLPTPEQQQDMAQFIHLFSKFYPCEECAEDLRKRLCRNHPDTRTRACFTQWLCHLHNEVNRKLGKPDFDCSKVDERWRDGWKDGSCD
Chain of 72 kDa type IV collagenase (P08253 whole entry): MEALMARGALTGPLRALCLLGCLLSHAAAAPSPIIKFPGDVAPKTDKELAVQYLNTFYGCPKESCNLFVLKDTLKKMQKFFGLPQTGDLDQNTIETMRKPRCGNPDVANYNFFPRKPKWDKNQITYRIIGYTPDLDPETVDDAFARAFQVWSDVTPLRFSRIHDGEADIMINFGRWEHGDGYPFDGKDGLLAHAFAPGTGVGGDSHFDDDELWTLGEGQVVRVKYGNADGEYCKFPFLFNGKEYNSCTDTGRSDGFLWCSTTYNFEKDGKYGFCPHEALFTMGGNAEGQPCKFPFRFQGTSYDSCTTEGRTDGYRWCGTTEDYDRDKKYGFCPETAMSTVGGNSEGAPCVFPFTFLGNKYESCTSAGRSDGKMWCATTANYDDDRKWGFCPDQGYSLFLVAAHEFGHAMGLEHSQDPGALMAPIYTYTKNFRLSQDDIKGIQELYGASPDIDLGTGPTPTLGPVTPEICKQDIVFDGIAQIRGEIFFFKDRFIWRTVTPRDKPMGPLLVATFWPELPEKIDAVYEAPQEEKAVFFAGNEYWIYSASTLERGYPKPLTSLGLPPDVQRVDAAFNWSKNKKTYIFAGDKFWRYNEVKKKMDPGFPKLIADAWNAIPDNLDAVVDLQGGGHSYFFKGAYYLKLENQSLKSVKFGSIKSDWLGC
Chain of Galanin receptor type 3 (O60755 whole entry): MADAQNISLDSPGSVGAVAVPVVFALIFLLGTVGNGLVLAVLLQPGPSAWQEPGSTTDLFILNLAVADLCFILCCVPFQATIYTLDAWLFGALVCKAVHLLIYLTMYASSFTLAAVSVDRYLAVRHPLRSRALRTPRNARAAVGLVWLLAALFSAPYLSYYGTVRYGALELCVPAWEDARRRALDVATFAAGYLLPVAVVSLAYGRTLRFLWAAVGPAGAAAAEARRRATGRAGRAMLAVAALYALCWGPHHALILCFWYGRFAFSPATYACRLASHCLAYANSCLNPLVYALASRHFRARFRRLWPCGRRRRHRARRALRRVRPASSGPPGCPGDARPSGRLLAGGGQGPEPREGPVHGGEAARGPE
Chain of 26S proteasome non-ATPase regulatory subunit 14 (O00487 whole entry): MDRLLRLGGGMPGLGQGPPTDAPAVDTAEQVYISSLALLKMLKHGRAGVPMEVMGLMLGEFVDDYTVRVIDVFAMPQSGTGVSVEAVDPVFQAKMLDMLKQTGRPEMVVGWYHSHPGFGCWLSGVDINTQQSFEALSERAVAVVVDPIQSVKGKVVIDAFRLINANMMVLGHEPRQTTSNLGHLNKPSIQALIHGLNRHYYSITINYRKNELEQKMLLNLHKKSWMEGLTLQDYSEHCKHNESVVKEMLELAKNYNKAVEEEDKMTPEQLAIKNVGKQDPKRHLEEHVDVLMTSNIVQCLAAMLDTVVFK
Chain of 5-hydroxytryptamine receptor 2A (P35363 whole entry): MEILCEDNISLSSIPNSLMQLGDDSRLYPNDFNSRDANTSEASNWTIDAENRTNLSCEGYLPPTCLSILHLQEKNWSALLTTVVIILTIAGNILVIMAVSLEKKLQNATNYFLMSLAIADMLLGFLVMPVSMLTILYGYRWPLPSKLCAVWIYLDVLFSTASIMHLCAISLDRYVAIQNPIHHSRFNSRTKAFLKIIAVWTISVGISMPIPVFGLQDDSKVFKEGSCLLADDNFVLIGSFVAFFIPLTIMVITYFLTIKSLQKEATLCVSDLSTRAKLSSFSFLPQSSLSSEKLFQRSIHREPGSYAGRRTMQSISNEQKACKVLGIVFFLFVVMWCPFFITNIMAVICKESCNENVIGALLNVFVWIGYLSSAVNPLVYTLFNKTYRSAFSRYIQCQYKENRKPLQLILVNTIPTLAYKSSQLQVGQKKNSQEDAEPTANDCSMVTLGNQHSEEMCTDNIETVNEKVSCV
Chain of Tumor necrosis factor (P01375 whole entry, the tested form may be a part): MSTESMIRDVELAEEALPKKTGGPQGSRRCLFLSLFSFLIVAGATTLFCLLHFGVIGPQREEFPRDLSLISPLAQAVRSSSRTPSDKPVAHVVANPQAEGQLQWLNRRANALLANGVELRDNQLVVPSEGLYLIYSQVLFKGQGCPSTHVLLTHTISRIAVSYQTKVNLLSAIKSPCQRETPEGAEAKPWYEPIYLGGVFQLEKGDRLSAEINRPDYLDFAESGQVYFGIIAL
Chain of Eukaryotic translation initiation factor 4E (P63073 whole entry): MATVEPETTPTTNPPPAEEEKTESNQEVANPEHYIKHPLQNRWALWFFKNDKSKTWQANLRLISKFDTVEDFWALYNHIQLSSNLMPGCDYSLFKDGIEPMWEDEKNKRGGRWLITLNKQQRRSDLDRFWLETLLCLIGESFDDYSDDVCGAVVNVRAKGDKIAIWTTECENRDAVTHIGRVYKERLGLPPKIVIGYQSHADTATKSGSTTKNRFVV

- EC50 (Mu-type opioid receptor): 92.5 µM (inactive)
- EC50 [1]: 76.1 µM (inactive)
SMILES: Cc1ccc(C(=O)N/C(=C/c2ccccc2)C(=O)NC(Cc2ccccc2)C(=O)O)cc1 (stereo not drawn)

SMILES: CCCCCn1c(=O)[nH]c2cc(C(=O)N3CCN(Cc4ccc5c(c4)OCO5)CC3)ccc2c1=O
- EC50 (HEK293 [2]): 0.36 µM (active)
- IC50 (HEK293 [3]): 0.97 µM (active)
- IC50 (HEK293 [4]): 8.7 µM (active)
- IC50 (HEK293 [5]): 1.27 µM (active)
- IC50 (Tumor necrosis factor): 1.18 µM (active)
- IC50 [6]: 0.771 µM (active)
- IC50 (Jurkat): > 80 µM (inactive)
- IC50 [7]: > 64 µM (inactive)
- IC50 [8]: > 80 µM (inactive)
- IC50 (Galanin receptor type 3): 0.148 µM (active)
- EC50 (cells): > 29.9 µM (inactive)
- AC50 [9]: > 70 µM (inactive)
- AC50 [10]: < 0.26 µM (active)
- IC50 (HEK293 [11]): > 20 µM (inactive)

- IC50 [12]: 3.73 µM (active)
- IC50 [13]: 17.9 µM (active)
- IC50 [14]: 12 µM (active)
- IC50 (Prothrombin): 61.6 µM (active)
- IC50 [15]: 12 µM (active)
- IC50 [16]: 15.8 µM (active)
- IC50 [17]: 29 µM (inactive)
SMILES: O=C(/C=C/c1ccccc1Cl)Nc1ccc2c(c1)C(=O)NC2=O

SMILES: COc1cc(NS(C)(=O)=O)ccc1Nc1c2ccccc2nc2ccccc12 [AMSACRINE HYDROCHLORIDE]
- AC50 [18]: 0.91 µM (active)
- IC50 [19]: > 80 µM (inactive)
- AC50 [20]: 16 µM (active)
- AC50 [21]: 1.32 µM (active)
- AC50 [22]: 18.9 µM (active)
- AC50 [23]: 7.09 µM (active)
- AC50 [24]: 23.3 µM (active)
- AC50 [25]: 39.4 µM (active)
- AC50 [26]: 11.6 µM (active)
- AC50 [27]: 6.83 µM (active)
